Usually IC50 stands for the point on the concentration scale where inhibition reaches its midpoint.

The results in this text go back to patent publication US11045448B2, “Piperidines as covalent menin inhibitors” (THE REGENTS OF THE UNIVERSITY OF MICHIGAN, priority 2017, dated 2021).

This test concerns the target menin protein (Homo sapiens (Human), UniProt O00255). The test is described as follows: Fluorescence polarization (FP) competitive binding assay, menin binding affinity. The following applies: menin protein 4 nM, probe 2 nM, room temperature 30 minutes. As for the experimental part:
A fluorescence polarization (FP) competitive binding assay was used to determine the binding affinities of representative menin inhibitors. A FAM labeled fluorescent probe was designed and synthesized based on a MLL1 peptide (FAM-MM2). Equilibrium dissociation constant (Kd) value of FAM-MM2 to menin protein was determined from protein saturation experiments by monitoring the total fluorescence polarization of mixtures composed with the fluorescent probe at a fixed concentration and the protein with increasing concentrations up to full saturation. Serial dilutions of the protein were mixed with FAM-MM2 to a final volume of 200 μl in the assay buffer (PBS with 0.02% Bovine γ-Globulin and 4% DMSO. 0.01% Triton X-100 was added right before assays). Final FAM-MM2 concentration was 2 nM. Plates were incubated at room temperature for 30 minutes with gentle shaking to assure equilibrium. FP values in millipolarization units (mP) were measured using the Infinite M-1000 plate reader (Tecan U.S., Research Triangle Park, N.C.) in Microfluor 1 96-well, black, v-bottom plates (Thermo Scientific, Waltham, Mass.) at an excitation wavelength of 485 nm and an emission wavelength of 530 nm.
The IC50, see Table 3, of representative Compounds of the Disclosure were determined in a competitive binding experiment. Mixtures of 5 μl of the tested compounds in DMSO and 195 μl of preincubated protein/probe complex solution in the assay buffer were added into assay plates which were incubated at room temperature for 30 minutes with gentle shaking. Final concentration of the menin protein was 4 nM, and final probe concentration is 2 nM. Negative controls containing protein/probe complex only (equivalent to 0% inhibition), and positive controls containing only free probes (equivalent to 100% inhibition), were included in each assay plate. FP values were measured as described above. IC50 values were determined by nonlinear regression fitting of the competition curves.
(Fluorescence polarisation rises when a labelled molecule tumbles more slowly, as on binding a larger partner.)

menin protein, sequence (O00255 whole entry): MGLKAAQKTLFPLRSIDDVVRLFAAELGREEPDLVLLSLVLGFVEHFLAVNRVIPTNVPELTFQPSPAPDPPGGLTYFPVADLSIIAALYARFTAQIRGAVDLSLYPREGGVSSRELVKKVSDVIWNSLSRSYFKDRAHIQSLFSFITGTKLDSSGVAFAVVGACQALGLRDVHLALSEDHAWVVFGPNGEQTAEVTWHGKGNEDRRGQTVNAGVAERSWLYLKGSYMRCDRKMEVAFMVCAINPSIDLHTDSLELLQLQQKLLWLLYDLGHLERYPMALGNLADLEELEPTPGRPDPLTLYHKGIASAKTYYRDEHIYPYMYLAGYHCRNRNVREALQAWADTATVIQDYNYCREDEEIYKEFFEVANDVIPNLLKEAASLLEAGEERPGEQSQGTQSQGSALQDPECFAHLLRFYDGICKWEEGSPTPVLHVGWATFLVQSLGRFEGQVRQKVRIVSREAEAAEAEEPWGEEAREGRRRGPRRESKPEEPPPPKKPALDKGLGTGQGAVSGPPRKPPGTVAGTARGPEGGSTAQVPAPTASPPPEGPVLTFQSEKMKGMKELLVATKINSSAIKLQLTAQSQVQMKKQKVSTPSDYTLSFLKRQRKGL

As for `C/C=C/C(=O)Nc1cccc(S(=O)(=O)c2ccc(N3CC(CN4CCC([C@@](C#N)(c5cccc(F)c5)[C@H]5CCC[C@@H]5NC(=O)OC)CC4)C3)cc2)c1` [Cpd. No. 62, methyl ((1S,2R)-2-((S)-(1-((1-(4-((3-((E)-but-2-enamido)phenyl)sulfonyl)phenyl)azetidin-3-yl)methyl)piperidin-4-yl)(cyano)(3-fluorophenyl)methyl)cyclopentyl)carbamate], the IC50 amounted to 4 nM.
Under `C=CC(=O)Nc1ccc(S(=O)(=O)c2ccc(N3CC(CN4CCC([C@](C#N)(c5cccc(F)c5)[C@H]5CCC[C@@H]5OC(=O)NC)CC4)C3)cc2)cc1` [Cpd. No. 11, (1S,2R)-2-((R)-(1-((1-(4-((4-acrylamidophenyl)sulfonyl)phenyl)azetidin-3-yl)methyl)piperidin-4-yl)(cyano)(3-fluorophenyl)methyl)cyclopentyl methylcarbamate] stands 2200 nM; under `COC(=O)N[C@H]1CCC[C@@H]1[C@](C#N)(c1cccc(F)c1)C1CCN(CC2(F)CN(c3ccc(S(=O)(=O)C4CN(C(=O)/C=C/CN(C)C)C4)cc3)C2)CC1` [Cpd. No. 69, methyl ((1S,2R)-2-((S)-cyano(1-((1-(4-((1-((E)-4-(dimethylamino)but-2-enoyl)azetidin-3-yl)sulfonyl)phenyl)-3-fluoroazetidin-3-yl)methyl)piperidin-4-yl)(3-fluorophenyl)methyl)cyclopentyl)carbamate], 9 nM; under `C=CC(=O)N1CC(S(=O)(=O)c2ccc(N3CC(F)(CN4CCC([C@@](Cn5ccnc5CC)(c5cccc(F)c5)[C@H]5CCC[C@@H]5NC(=O)OC)CC4)C3)cc2)C1` [Cpd. No. 16, methyl ((1S,2R)-2-((S)-1-(1-((1-(4-((1-acryloylazetidin-3-yl)sulfonyl)phenyl)-3-fluoroazetidin-3-yl)methyl)piperidin-4-yl)-2-(2-ethyl-1H-imidazol-1-yl)-1-(3-fluorophenyl)ethyl)cyclopentyl)carbamate], 2 nM.
Under `C=CC(=O)Nc1cccc(S(=O)(=O)c2ccc(N3CC(CN4CCC([C@](C#N)(c5cccc(F)c5)[C@H]5CCC[C@@H]5OC(=O)NC)CC4)C3)cc2)c1` [Cpd. No. 4, (1S,2R)-2-((R)-(1-((1-(4-((3-acrylamidophenyl)sulfonyl)phenyl)azetidin-3-yl)methyl)piperidin-4-yl)(cyano)(3-fluorophenyl)methyl)cyclopentyl methylcarbamate] stands 300 nM; under `C#CC(=O)N[C@H]1CCC[C@@H]1[C@](C#N)(c1cccc(F)c1)C1CCN(CC2CN(c3ccc(C#N)cc3)C2)CC1` [compound 82, N-((1S,2R)-2-((S)-cyano(1-((1-(4-cyanophenyl)azetidin-3-yl)methyl)piperidin-4-yl)(3-fluorophenyl)methyl)cyclopentyl)propiolamide], 4 nM; under `COC(=O)N[C@H]1CCC[C@@H]1[C@](C#N)(c1cccc(F)c1)C1CCN(CCCOc2ccc(S(=O)(=O)C3CN(C(=O)/C=C/CN(C)C)C3)cc2)CC1` [Cpd. No. 68, methyl ((1S,2R)-2-((S)-cyano(1-(3-(4-((1-((E)-4-(dimethylamino)but-2-enoyl)azetidin-3-yl)sulfonyl)phenoxy)propyl)piperidin-4-yl)(3-fluorophenyl)methyl)cyclopentyl)carbamate], 7 nM.
Under `C=CC(=O)N[C@H]1CCC[C@@H]1[C@](C#N)(c1cccc(F)c1)C1CCN(CC2CN(c3ccc(C#N)cc3)C2)CC1` [Cpd. No. 80, N-((1S,2R)-2-((S)-cyano(1-((1-(4-cyanophenyl)azetidin-3-yl)methyl)piperidin-4-yl)(3-fluorophenyl)methyl)cyclopentyl)acrylamide] stands 7 nM; under `COC(=O)N[C@H]1CCC[C@@H]1[C@](C#N)(c1cccc(F)c1)C1CCN(CC2CN(c3ccc(S(=O)(=O)C4CN(C(=O)/C=C/CN5CCOCC5)C4)cc3)C2)CC1` [Cpd. No. 59, methyl ((1S,2R)-2-((S)-cyano(3-fluorophenyl)(1-((1-(4-((1-((E)-4-morpholinobut-2-enoyl)azetidin-3-yl)sulfonyl)phenyl)azetidin-3-yl)methyl)piperidin-4-yl)methyl)cyclopentyl)carbamate], 4 nM.
Take `C=CC(=O)Nc1cccc(S(=O)(=O)c2ccc(N3CC(F)(CN4CCC([C@@](Cn5ccnc5CC)(c5cccc(F)c5)[C@H]5CCC[C@@H]5NC(=O)OC)CC4)C3)cc2)c1` [Cpd. No. 9, methyl ((1S,2R)-2-((S)-1-(1-((1-(4-((3-acrylamidophenyl)sulfonyl)phenyl)-3-fluoroazetidin-3-yl)methyl)piperidin-4-yl)-2-(2-ethyl-1H-imidazol-1-yl)-1-(3-fluorophenyl)ethyl)cyclopentyl)carbamate]: the IC50 was found to be 2 nM.
Under `C=CC(=O)Nc1ccc(S(=O)(=O)c2ccc(N3CC(CN4CCC([C@@](C#N)(c5cccc(F)c5)[C@H]5CCC[C@@H]5OC(=O)NC)CC4)C3)cc2)cc1` [Cpd. No. 10, (1S,2R)-2-((S)-(1-((1-(4-((4-acrylamidophenyl)sulfonyl)phenyl)azetidin-3-yl)methyl)piperidin-4-yl)(cyano)(3-fluorophenyl)methyl)cyclopentyl methylcarbamate] stands 2 nM.
`C=CS(=O)(=O)N[C@H]1CCC[C@@H]1[C@](C#N)(c1cccc(F)c1)C1CCN(CC2CN(c3ccc(C#N)cc3)C2)CC1` [Cpd. No. 79, N-((1S,2R)-2-((S)-cyano(1-((1-(4-cyanophenyl)azetidin-3-yl)methyl)piperidin-4-yl)(3-fluorophenyl)methyl)cyclopentyl)ethenesulfonamide]: the IC50 is 1070 nM.
Take `COC(=O)N[C@H]1CCC[C@@H]1[C@](C#N)(c1cccc(F)c1)C1CCN(CC2CN(c3ccc(S(=O)(=O)c4cccc(NC(=O)/C=C/CN5CCOCC5)c4)cc3)C2)CC1` [Cpd. No. 58, methyl ((1S,2R)-2-((S)-cyano(3-fluorophenyl)(1-((1-(4-((3-((E)-4-morpholinobut-2-enamido)phenyl)sulfonyl)phenyl)azetidin-3-yl)methyl)piperidin-4-yl)methyl)cyclopentyl)carbamate]: the IC50 was determined as 5 nM.
The value for `C=CC(=O)Nc1ccc(S(=O)(=O)c2ccc(N3CC(CN4CCC([C@@](C#N)(c5cccc(F)c5)[C@H]5CCC[C@@H]5NC(=O)OC)CC4)C3)cc2)cc1` [Cpd. No. 61, methyl ((1S,2R)-2-((S)-(1-((1-(4-((4-acrylamidophenyl)sulfonyl)phenyl)azetidin-3-yl)methyl)piperidin-4-yl)(cyano)(3-fluorophenyl)methyl)cyclopentyl)carbamate] was 4 nM.
Take `C=CC(=O)N1CC(S(=O)(=O)c2ccc(OCCOc3ccc([C@@](C#N)(c4cccc(F)c4)[C@H]4CCC[C@@H]4NC(=O)OC)cc3)cc2)C1` [Cpd. No. 64, methyl ((1S,2R)-2-((R)-(4-(2-(4-((1-acryloylazetidin-3-yl)sulfonyl)phenoxy)ethoxy)phenyl)(cyano)(3-fluorophenyl)methyl)cyclopentyl)carbamate]: the IC50 was above 10000 nM.
Under `C=CC(=O)N1CC(S(=O)(=O)c2ccc(N3CC(CN4CCC([C@](C#N)(c5cccc(F)c5)[C@H]5CCC[C@@H]5OC(=O)NC)CC4)C3)cc2)C1` [Cpd. No. 2, (1S,2R)-2-((R)-(1-((1-(4-((1-acryloylazetidin-3-yl)sulfonyl)phenyl)azetidin-3-yl)methyl)piperidin-4-yl)(cyano)(3-fluorophenyl)methyl)cyclopentyl methylcarbamate] stands 374 nM.
